Experimental data from patent publication US20090105149A1, “Compounds comprising lpa” (ENKAM PHARMACEUTICALS A/S, priority 2003, published 2009).
Marks after values point to notes of the source that are not given here.

Experiments:
adult male Wistar rats = test: Contextual Fear Conditioning test; format: in vivo, rat; settings: 5 μg immediately after training
Source text: In the Contextual Fear Conditioning test, rats experienced inescapable shocks when exposed to a *new environment, which results in the development of a conditioned fear response, consisting of a characteristic immobility or ‘freezing response’, when subsequently re-exposed to the same environment.
The rats were handled for 120 seconds every day for 3 days preceding the first day of the experiment. On day 1 (training), the rats received a 1-second shock (unconditioned stimuli) each minute for two minutes. Animals were injected immediately after training with 5 μl FGLd (5 μg), the control peptide (5 μg) or the vehicle. Each treatment group consisted of 11-14 rats. In total, 39 animals were evaluated. Animals were tested on days 2, 7 and 30 by placing them in the chamber used for conditioning, but in the absence of a shock, for 8 minutes. Each rat was rated as either “freezing” or “active”, every 2 seconds, using a time-sampling procedure.

dopaminergic neurons = test: Survival of dopaminergic neurons exposed to 6-OHDA; format: cell-based, rat
Protocol: Dopaminergic neurons (DN) (a and b) from day 15 rat embryos grown at a density of 150,000 cells/cm^2 for six days without or with various concentrations of peptide on 24-well cell culture plates coated with poly-D-lysine were exposed to 100 μM 6-OHDA for two hours. Medium was changed and various concentrations of FGLd were added. The neurons were grown for another 24 hours before the cultures they were fixed and immunostained for tyrosine hydroxylase.
Dopaminergic neurons were prepared from Wistar rat embryos at embryonic day 15 (Charles River, Sulzfeld, Germany or Møllegaard, Denmark). A pregnant rat was sacrificed and the uterus was taken out and kept on ice in Hank's balanced salt solution (HBSS; Gibco, BRL). The ventral part of the mesencephalon was dissected from the embryonic brains, homogenised on ice in Gey's balanced salt solution (GBSS; Gibco, BRL) supplemented with 5 g glucose/l (Sigma-Aldrich) and thereafter trypsinised. The dissociated cells were washed in the presence of DNAse 1 and soybean trypsin inhibitor (Sigma-Aldrich).
For the survival assay isolated neurons were seeded at a density of 150,000 cells/cm^2 in 24-well cell culture plates coated with poly-D-lysine as described above. The neurons were left to differentiate for six days without or with various concentrations of the FGL peptide, after which 6-OHDA was added at a concentration of 100 μM for two hours. A stock solution was prepared by dissolving 6-OHDA to a concentration of 10 mM in 0.1% (w/v) sodium metabisulfite in order to prevent oxidation. After two hours with 6-OHDA, the medium was changed to Neurobasal medium with supplements and peptide, and the cell cultures were further incubated for 24 hours, fixed and immunostained for tyrosine hydroxylase. 98 images for each experimental condition in each individual experiment were automatically recorded as described for the dopaminergic neurite outgrowth assay below.

hippocampal neurons [1] = test: FM 1-43 destaining (presynaptic vesicle turnover) in hippocampal neurons; format: cell-based, rat
Protocol: The values were compared using an unpaired t-test. *p=0.04 (1 h) and **p=0.0032 (48 h). FGLcontrol is a control peptide consisting the sequence […] (SEQ ID NO: 147).
The effects of FGLd on vesicle turnover was estimated in primary cultures of hippocampal neurons from embryonic rats (E19). The cultures were prepared as above. Following 13-16 days in vitro, FGLd was added to the cultures and incubated for 1, 24 or 48 hours. After 48 hours of incubation, the FGFR-inhibitor (SU 5402) was added simultaneously with FGLd to some of the cultures.
After treatment with FGLd the neurons were labeled with the fluorescent membrane probe FM 1-43 as described by Kiryushko et al (2003) J Biol. Chem. 278:12325-34. The rate of FM 1-43 release (destaining of cells) evoked by depolarisation with 90 mM potassium was then evaluated by a time-lapse image acquisition using the Radiance 2000 scanning system and a Nikon eclipse TE200 confocal microscopy.

hippocampal neurons [2] = test: Survival of hippocampal neurons exposed to Aβ25-35; format: cell-based, rat; settings: for Neuronal Survival (% of Control): β-amyloid, Hippocampal (E19)
Protocol: For the experiments dissociated hippocampal neurons were isolated from Wistar rat embryos at embryonic day 19 or newborn rats as described by Rønn et al. (1999) Nat. Biotechnol. 17:1000-5.
Briefly, hippocampus was isolated from the brain in ice cold modified Krebs Ringer solution, cleared of blood vessels, roughly homogenised by chopping and then trypsinised. The dissociated cells were washed in the presence of DNAse 1 and soybean trypsin inhibitor.
For the assay neurons were plated at a density of 40,000 cells/cm^2 on 8-well permanox slides coated with 10 μg/ml poly-L-lysine in Neurobasal medium. 15 minutes after plating, Aβ25-35 was added to a final concentration of 20 μM. The Aβ25-35 had prior to plating been dissolved in sterile deionized water to a concentration of 3 mM and incubated at 37° C. for four days according to Pigino et al. (2001) J. Neurosci. 21:834-42. This treatment induces fibrillation of the Aβ-peptide fragment, thereby increasing its neurotoxic activity. The neurons were incubated with Neurobasal medium containing the FGL peptide for 70 hours, fixed with 4% (v/v) formaldehyde, and stained with Hoechst 33258 for 25 minutes as described by Kruman et al. (1997). Images of 1000-1500 neurons were randomly recorded for each group in each experiment using computer assisted fluorescence microscopy as described for the hippocampal neurite outgrowth assay. Nuclei from dead and live neurons were counted using the software package Prima developed at the Protein Laborator, Copenhagen University, and the fraction of live neurons relative to the total number of neurons was estimated.

With “FGLd: MAP-type dendrimer of FGL; dendrimeric tetramer of the FGL peptide (EVYVVAENQQGKSKA)” the “percentage of freezing time” value (adult male Wistar rats; day 2 after conditioning, control 50.5%) was 73.5%, the “percentage of freezing time” value (adult male Wistar rats; day 7 after conditioning, control 30.0%) was 60.3% and the “Neuronal Survival (% of Control)” value (dopaminergic neurons; 6-OHDA, DA (E14), 1 μg/mL) was 143%* % of Control. The “survival of dopaminergic neurons treated with 6-OHDA, maximal rescue” value (dopaminergic neurons; at 1 μg/ml, 6-OHDA-treated control = 100%) was “approximately 135%”, the “rate of FM 1-43 unloading” value (hippocampal neurons [1]; 5 μg/ml for any time period) was “Neither treatment with 5 μg/ml FGLd for any time period, nor the treatment with 20 μg/ml for 24 hours had any effect” and the “rate of FM 1-43 destaining” value (hippocampal neurons [1]; 20 μg/ml for 1 h, control 0.008) was 0.016 s⁻¹. The “rate of FM 1-43 destaining” value (hippocampal neurons [1]; 20 μg/ml for 24 h) was “did not result in a significant effect”, the “rate of FM 1-43 destaining” value (hippocampal neurons [1]; 20 μg/ml for 48 h, control 0.013) was 0.028 s⁻¹ and the “neuroprotection of hippocampal neurons, maximal level” value (hippocampal neurons [2]; at 0.3 μg/ml, 20 μM Aβ25-35, Aβ25-35-treated controls = 100%) was 110%. For the same substance, the “Neuronal Survival (% of Control)” value (hippocampal neurons [2]; 0.01 μg/mL) was 109%** % of Control, the “Neuronal Survival (% of Control)” value (hippocampal neurons [2]; 3 μg/mL) was 107%** % of Control and the “Neuronal Survival (% of Control)” value (hippocampal neurons [2]; 9 μg/mL) was 107%** % of Control.
